According to the supplement of paper PMC10307832:

Experiments:
Experiment in all cases: relative viability (nuclei count vs DMSO), 5 days (fraction); higher = more cells survive
[1] = compound: CC[C@@H]1C(=O)N(C)c2cnc(Nc3ccc(C(=O)NC4CCN(C)CC4)cc3OC)nc2N1C1CCCC1 [BI-2536] + CCNC(=O)c1noc(-c2cc(C(C)C)c(O)cc2O)c1-c1ccc(CN2CCOCC2)cc1 [Luminespib] (partner 0.01 µM)
Method in brief: (§1)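 Values are medians from duplicate plates. Each reflects relative viability, defined as the nuclei count of treated wells over that of vehicle wells. Lung cancer cell lines in 1536-well plates were pin-tool dosed one day after seeding with one drug alone or with a fixed anchor-drug dose plus five library-drug doses (not always all listed) in √10 steps, then fixed, stained and imaged at 4× after 5 days.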

[2] = compound: CC[C@@H]1C(=O)N(C)c2cnc(Nc3ccc(C(=O)NC4CCN(C)CC4)cc3OC)nc2N1C1CCCC1 [BI-2536] + Nc1ncn([C@H]2C[C@H](O)[C@@H](CO)O2)c(=O)n1 [Decitabine] (partner 2 µM)
Method in brief: as §1

[3] = compound: CC[C@@H]1C(=O)N(C)c2cnc(Nc3ccc(C(=O)NC4CCN(C)CC4)cc3OC)nc2N1C1CCCC1 [BI-2536] + Cc1nc(NC(=O)N2CCC[C@H]2C(N)=O)sc1-c1ccnc(C(C)(C)C(F)(F)F)c1 [Alpelisib] (partner 2 µM)
Method in brief: as §1

[4] = compound: CC1CC(=O)N(C2=CN=C(N=C2N1C3CCCC3)NC4=C(C=C(C=C4)C(=O)NC5CCN(CC5)C)OC)C [NPK76-II-72-1] + Cc1nc(Nc2ncc(C(=O)Nc3c(C)cccc3Cl)s2)cc(N2CCN(CCO)CC2)n1 [Dasatinib] (partner 0.075 µM)
Method in brief: as §1

## UMC-11
[1]; first compound 0.01 µM
  relative viability: 0.925
[1]; first compound 0.03162 µM
  relative viability: 0.725
[1]; first compound 0.1 µM
  relative viability: 0.232
[1]; first compound 0.3162 µM
  relative viability: 0.188
[1]; first compound 1 µM
  relative viability: 0.168
[2]; first compound 0.01 µM
  relative viability: 0.568
[2]; first compound 0.03162 µM
  relative viability: 0.306
[2]; first compound 0.1 µM
  relative viability: 0.232
[2]; first compound 0.3162 µM
  relative viability: 0.265
[2]; first compound 1 µM
  relative viability: 0.28
[3]; first compound 0.01 µM
  relative viability: 0.978
[3]; first compound 0.03162 µM
  relative viability: 0.733
[3]; first compound 0.1 µM
  relative viability: 0.312
[3]; first compound 0.3162 µM
  relative viability: 0.152
[3]; first compound 1 µM
  relative viability: 0.126
[4]; first compound 0.01 µM
  relative viability: 0.45
[4]; first compound 0.03162 µM
  relative viability: 0.509
[4]; first compound 0.1 µM
  relative viability: 0.441
[4]; first compound 1 µM
  relative viability: 0.447
